Laboratory results published in ChEMBL document CHEMBL1201862, “PubChem BioAssay data set” (2004).
The source made the active and inactive calls.

Legend:
[1] = tested on: Streptococcus; assay: Group A Streptococcus viability loss, dose response, counter-screen for streptokinase expression inhibitor project, luminescence, BacTiterGlo (AID 1915); assay type: functional, organism-based;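 also: potency for reduction of bacterial viability or growth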
[2] = tested on: Streptococcus sp. 'group A'; assay: growth inhibition of control SK(-) GAS strain, dose response, counter-screen for streptokinase expression inhibitor project, luminescence, kanamycin, BacTiterGlo, confirmation (AID 1900); assay type: functional, organism-based
[3] = target: Beta-arrestin-1 (Homo sapiens, UniProt P49407); assay: inhibitors of arrestin peptide binding to AP2, dose response, biochemical, cherry pick 1, beta2-adaptin appendage, flow cytometry (AID 588783); assay type: functional
[4] = target: T1, Streptokinase A (Streptococcus pyogenes serotype M1, UniProt P10520); assay: S. pyogenes streptokinase expression inhibitors, potency, dose response, plasminogen activation absorbance, OD405 (AID 1914); assay type: functional, Streptococcus pyogenes M1 GAS;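 also: secreted streptokinase activity via plasminogen activation per viability signal from cell pellet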
T1 sequence (P10520 whole entry): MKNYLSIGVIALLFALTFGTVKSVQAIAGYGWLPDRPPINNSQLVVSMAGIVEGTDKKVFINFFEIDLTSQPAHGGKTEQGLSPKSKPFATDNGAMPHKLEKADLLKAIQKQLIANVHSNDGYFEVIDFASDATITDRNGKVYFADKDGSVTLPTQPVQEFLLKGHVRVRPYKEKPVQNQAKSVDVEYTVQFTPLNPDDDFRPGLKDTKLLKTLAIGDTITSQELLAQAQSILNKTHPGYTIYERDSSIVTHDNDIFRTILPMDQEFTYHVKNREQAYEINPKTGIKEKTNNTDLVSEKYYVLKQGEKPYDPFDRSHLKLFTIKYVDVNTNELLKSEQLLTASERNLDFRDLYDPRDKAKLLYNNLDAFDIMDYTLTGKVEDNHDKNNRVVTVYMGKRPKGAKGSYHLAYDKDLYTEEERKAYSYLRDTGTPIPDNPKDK

[5] = target: T2, Heat shock factor protein 1 (Mus musculus, UniProt P38532); assay: inhibition of MG132-induced HSE-luciferase signal, confirmation, cell-based, NIH3T3, luminescence, dose retest (AID 2382); assay type: functional;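 also: NIH3T3 fibroblasts with HSF1-driven luciferase reporter stressed by proteasome inhibitor MG132; luminescence from HSF1-driven luciferase expression after 8 hours of MG132 stress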
T2 sequence (P38532 whole entry): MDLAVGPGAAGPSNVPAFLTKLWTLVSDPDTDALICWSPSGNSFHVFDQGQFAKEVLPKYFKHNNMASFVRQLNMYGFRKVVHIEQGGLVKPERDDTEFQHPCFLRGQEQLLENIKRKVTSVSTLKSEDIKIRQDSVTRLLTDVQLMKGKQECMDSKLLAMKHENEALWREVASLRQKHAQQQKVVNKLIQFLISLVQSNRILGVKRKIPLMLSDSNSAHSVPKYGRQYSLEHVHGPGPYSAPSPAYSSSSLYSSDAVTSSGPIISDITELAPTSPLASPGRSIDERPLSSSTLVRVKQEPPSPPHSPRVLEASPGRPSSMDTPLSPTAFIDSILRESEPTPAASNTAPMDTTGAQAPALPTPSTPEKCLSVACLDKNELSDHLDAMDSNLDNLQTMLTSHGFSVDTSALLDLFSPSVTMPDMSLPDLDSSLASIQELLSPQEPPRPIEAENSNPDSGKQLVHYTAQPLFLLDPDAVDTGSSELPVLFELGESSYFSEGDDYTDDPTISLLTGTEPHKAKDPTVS

[6] = inhibitors of firefly luciferase expression or activity, dose response, H4 neuroglioma cells, luminescence (AID 1990); assay type: functional, cell-based
[7] = Luminescence Cell-Based Dose Response HTS to Identify Inhibitors of 5'UTR Stem-Loop Driven Prion Protein mRNA Translation in H4 Neuroglioblastoma Cells. [Related pubchem assays: 1827 (Project Summary), 1813 (Primary HTS)]; assay type: functional
[8] = inhibitors of SNCA 5'UTR-driven reporter translation, confirmation, H4 neuroglioma cells, luminescence (AID 1988); assay type: functional, cell-based
[9] = cells; assay type: functional, cell-based
[10] = inhibitors of SNCA 5'UTR-driven translation, confirmation, luminescence, H4 neuroglioblastoma cells, dose confirmation (AID 2454); assay type: functional, cell-based;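 also: H4 neuroglioblastoma cells carrying an alpha-synuclein 5'UTR luciferase reporter; potency for inhibition of the luciferase signal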
[11] = luciferase reporter signal reduction – luminescence, H4-C neuroglioblastoma cells, dose response (AID 2458); assay type: functional, cell-based;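 also: H4 neuroglioblastoma cells stably carrying a luciferase reporter gene fusion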
[12] = Shn3 3'UTR reporter inhibitors, dose response, cell-based, Clone20 osteoblasts, firefly luciferase, cherry-picked (AID 624132); assay type: functional;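 also: firefly luciferase luminescence from reporter carrying the Shn3 3'UTR in osteoblasts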
[13] = HepG2 cell cytotoxicity, dose response, cytotoxicity control for Shn3 inhibitor project, CellTiter-Glo, cherry-picked (AID 624134); assay type: functional, cell-based
[14] = target: Luciferin 4-monooxygenase (Photuris pensylvanica, UniProt Q27757); assay: firefly luciferase enzyme inhibitors, dose response, counter-screen for HSF-1 reporter inhibitor project, biochemical, Cell Titer Glo, luminescence, cherry-picks (AID 588847)
[15] = control 3'UTR Renilla luciferase suppression, dose response, counter-screen for Shn3 inhibitor project, cell-based, Clone20-Shn3RL, cherry-picked (AID 624133); assay type: functional
[16] = target: Glycogen synthase kinase-3 alpha (Homo sapiens, UniProt P49840); assay: Inhibition of Human GSK-3 alpha Activity Measured in Biochemical System Using Microfluidics - 2063-06_Inhibitor_Dose_DryPowder_Activity. [Related pubchem assays (depositor defined):AID2709]
[17] = target: Glycogen synthase kinase-3 beta (Homo sapiens, UniProt P49841); assay: Inhibition of Human GSK-3 beta Activity Measured in Biochemical System Using Microfluidics - 2063-05_Inhibitor_Dose_DryPowder_Activity. [Related pubchem assays (depositor defined):AID2709]
[18] = target: 72 kDa type IV collagenase (Homo sapiens, UniProt P08253); assay: Dose Response validation of uHTS RPN11 inhibitor hits using a MMP-2 Fluorescence assay.; assay type: functional
[19] = target: T3, Small ubiquitin-related modifier 1 (Homo sapiens, UniProt P63165); assay: inhibitors of SUMO1 partner interactions, dose response, biochemical, FRET (AID 624383); assay type: functional; conditions: read-out: IC50_Mean
[20] = target: T3, Small ubiquitin-related modifier 1; assay: inhibitors of SUMO1 peptide binding, dose response, biochemical, fluorescence polarization, uHTS hits (AID 624382); assay type: functional; conditions: read-out: IC50_Mean
[21] = target: Prothrombin (Bos taurus, UniProt P00735); assay: thrombin inhibition, dose response, biochemical, fluorescence polarization, uHTS hits (AID 602369); assay type: functional
[22] = target: Beta-adrenergic receptor kinase 1 (Homo sapiens, UniProt P25098); assay: GRK2 inhibitors displacing RNA aptamer, dose response, biochemical, flow cytometry beads, FAM-aptamer, powder set 1 (AID 588720)
[23] = target: Bcl-2-like protein 1 (Homo sapiens, UniProt Q07817); assay: BCL-XL inhibitors, dose response, selectivity assay for MCL1 inhibitor project, biochemical, fluorescence polarization, 1536-well (AID 2218)
[24] = target: T4, Apoptotic protease-activating factor 1 (Homo sapiens, UniProt O14727); assay: SAR analysis of small molecule Activators of Apaf-1 in a Fluorescent assay.; assay type: functional; conditions: read-out: EC50_Mean;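 also: caspase-3 cleavage of fluorogenic Rh110 DEVD substrate downstream of apoptosome activation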
T4 sequence (O14727 whole entry): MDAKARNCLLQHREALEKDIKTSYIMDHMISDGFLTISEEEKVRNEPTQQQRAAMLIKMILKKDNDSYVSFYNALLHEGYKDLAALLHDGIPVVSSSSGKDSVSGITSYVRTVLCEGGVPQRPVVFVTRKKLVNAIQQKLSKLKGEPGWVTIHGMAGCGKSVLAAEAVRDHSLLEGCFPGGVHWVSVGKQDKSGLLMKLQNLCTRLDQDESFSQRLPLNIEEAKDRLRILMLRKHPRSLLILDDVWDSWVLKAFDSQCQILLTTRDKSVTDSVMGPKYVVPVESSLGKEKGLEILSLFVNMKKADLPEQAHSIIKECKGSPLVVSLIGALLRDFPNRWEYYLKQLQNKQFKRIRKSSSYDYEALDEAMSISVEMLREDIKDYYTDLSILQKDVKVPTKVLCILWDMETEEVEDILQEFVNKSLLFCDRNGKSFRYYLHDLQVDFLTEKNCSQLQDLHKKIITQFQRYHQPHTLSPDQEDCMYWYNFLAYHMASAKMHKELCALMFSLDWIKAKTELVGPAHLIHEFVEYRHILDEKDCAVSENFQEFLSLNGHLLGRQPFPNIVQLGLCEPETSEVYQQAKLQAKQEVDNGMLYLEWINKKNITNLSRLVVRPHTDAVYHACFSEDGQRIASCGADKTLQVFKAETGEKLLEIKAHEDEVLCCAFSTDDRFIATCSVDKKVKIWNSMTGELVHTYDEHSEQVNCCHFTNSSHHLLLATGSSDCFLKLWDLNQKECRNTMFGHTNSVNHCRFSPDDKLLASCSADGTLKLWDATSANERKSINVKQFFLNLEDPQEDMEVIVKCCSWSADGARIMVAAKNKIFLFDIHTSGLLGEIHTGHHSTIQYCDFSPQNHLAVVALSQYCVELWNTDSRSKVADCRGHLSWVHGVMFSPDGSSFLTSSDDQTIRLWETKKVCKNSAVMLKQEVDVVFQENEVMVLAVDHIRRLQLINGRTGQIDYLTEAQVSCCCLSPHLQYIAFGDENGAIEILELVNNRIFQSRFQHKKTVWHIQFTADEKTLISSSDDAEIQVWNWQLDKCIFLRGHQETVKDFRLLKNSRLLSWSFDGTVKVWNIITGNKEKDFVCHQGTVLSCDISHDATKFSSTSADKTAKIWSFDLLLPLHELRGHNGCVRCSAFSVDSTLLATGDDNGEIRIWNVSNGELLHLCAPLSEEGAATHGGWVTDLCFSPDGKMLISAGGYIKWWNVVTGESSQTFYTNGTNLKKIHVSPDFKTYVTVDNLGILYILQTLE

[25] = target: 26S proteasome non-ATPase regulatory subunit 14 (Homo sapiens, UniProt O00487); assay: inhibition of proteasome subunit RPN11 – biochemical, fluorescence polarization, uHTS hits, confirmation (AID 602368); assay type: functional
[26] = target: Induced myeloid leukemia cell differentiation protein Mcl-1 (Homo sapiens, UniProt Q07820); assay: MCL1-BIM BH3 interaction inhibitors, dose response, biochemical, fluorescence polarization, BIM-BH3 peptide, 1536-well (AID 2217)
[27] = target: T5, Carboxy-terminal domain RNA polymerase II polypeptide A small phosphatase 1 (Homo sapiens, UniProt Q9GZU7); assay: inhibitors of CTDSP1, concentration-response testing, biochemical assay, absorbance-based, actives from ultra-high-throughput screening (AID 540297); assay type: functional
T5 sequence (Q9GZU7 whole entry): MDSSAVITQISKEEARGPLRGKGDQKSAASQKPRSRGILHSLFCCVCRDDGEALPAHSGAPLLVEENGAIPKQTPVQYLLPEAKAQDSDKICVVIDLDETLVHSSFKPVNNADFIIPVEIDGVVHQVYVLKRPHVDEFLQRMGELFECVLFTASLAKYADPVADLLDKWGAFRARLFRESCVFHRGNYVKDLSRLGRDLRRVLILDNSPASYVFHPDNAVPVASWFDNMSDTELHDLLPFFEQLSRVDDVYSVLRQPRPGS

T3 sequence (P63165 whole entry): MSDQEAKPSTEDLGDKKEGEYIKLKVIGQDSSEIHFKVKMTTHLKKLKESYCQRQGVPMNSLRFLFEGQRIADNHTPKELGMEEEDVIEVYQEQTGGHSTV
Beta-adrenergic receptor kinase 1, sequence (P25098 whole entry): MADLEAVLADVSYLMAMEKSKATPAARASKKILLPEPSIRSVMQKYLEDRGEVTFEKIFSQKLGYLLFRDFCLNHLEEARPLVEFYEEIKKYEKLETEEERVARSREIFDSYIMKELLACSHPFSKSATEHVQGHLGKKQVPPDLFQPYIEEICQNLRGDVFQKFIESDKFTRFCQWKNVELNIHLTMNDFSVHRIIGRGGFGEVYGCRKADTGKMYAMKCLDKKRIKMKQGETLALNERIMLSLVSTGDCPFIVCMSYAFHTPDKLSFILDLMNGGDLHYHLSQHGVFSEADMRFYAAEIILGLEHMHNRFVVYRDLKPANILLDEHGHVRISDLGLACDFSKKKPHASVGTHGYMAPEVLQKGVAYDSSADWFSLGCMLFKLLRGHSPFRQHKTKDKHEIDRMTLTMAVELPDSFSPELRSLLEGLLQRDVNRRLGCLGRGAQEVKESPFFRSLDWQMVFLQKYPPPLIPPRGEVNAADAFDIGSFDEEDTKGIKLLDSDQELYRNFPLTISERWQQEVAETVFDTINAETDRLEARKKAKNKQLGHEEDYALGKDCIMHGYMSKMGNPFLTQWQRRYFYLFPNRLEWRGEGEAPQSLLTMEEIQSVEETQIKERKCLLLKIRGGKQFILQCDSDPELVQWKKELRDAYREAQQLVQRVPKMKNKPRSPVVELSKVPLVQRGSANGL
Luciferin 4-monooxygenase, sequence (Q27757 whole entry): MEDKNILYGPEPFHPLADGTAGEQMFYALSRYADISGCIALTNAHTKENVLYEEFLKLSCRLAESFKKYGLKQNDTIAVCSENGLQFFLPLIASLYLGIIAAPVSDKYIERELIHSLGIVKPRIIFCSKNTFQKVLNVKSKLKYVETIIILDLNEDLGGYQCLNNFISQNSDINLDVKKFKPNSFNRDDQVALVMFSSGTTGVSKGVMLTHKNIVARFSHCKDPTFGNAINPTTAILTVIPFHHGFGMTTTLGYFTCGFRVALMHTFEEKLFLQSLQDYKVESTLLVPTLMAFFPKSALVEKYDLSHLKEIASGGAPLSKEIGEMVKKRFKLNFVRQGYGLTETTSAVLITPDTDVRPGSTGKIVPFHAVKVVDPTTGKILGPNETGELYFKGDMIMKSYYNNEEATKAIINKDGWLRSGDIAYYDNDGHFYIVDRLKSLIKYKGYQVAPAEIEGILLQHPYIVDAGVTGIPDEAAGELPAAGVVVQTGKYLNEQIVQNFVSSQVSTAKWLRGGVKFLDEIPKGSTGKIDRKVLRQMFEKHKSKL
72 kDa type IV collagenase, sequence (P08253 whole entry): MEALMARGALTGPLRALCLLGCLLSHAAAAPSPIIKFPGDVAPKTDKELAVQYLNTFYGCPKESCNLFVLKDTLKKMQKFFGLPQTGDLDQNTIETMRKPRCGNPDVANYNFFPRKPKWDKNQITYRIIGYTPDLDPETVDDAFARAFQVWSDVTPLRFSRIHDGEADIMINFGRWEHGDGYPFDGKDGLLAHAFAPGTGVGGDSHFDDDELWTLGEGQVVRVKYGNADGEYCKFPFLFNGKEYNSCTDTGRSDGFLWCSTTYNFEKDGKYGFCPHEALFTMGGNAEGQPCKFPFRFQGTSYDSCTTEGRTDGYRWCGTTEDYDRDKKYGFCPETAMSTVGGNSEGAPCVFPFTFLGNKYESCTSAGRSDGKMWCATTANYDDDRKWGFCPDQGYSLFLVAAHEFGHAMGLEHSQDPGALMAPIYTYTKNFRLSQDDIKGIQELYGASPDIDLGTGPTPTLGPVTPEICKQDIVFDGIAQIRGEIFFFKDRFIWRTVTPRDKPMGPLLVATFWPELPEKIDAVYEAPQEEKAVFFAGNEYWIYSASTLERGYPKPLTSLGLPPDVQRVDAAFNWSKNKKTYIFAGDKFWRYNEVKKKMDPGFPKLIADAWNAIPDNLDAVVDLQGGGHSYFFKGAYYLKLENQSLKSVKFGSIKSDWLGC
Glycogen synthase kinase-3 alpha, sequence (P49840 whole entry): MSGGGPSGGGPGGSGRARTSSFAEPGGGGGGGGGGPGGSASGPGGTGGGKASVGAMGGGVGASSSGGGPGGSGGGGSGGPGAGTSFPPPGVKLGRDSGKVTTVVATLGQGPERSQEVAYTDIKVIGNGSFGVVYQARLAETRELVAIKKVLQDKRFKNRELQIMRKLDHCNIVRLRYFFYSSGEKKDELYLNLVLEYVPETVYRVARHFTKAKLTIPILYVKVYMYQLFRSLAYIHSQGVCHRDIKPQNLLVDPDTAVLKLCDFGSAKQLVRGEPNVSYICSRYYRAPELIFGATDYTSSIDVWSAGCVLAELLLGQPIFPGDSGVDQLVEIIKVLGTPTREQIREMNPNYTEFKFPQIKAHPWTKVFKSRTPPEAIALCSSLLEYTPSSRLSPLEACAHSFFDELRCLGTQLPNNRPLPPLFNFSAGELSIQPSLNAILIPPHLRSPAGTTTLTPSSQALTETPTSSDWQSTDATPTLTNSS
26S proteasome non-ATPase regulatory subunit 14, sequence (O00487 whole entry): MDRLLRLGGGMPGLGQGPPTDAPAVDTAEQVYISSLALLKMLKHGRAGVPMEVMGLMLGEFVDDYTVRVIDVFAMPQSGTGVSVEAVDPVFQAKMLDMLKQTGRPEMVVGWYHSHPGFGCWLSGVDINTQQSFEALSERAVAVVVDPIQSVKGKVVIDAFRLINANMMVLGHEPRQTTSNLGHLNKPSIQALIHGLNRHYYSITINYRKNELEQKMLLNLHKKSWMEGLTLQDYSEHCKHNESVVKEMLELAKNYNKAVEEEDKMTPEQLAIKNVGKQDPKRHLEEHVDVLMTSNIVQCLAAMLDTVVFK
Glycogen synthase kinase-3 beta, sequence (P49841 whole entry): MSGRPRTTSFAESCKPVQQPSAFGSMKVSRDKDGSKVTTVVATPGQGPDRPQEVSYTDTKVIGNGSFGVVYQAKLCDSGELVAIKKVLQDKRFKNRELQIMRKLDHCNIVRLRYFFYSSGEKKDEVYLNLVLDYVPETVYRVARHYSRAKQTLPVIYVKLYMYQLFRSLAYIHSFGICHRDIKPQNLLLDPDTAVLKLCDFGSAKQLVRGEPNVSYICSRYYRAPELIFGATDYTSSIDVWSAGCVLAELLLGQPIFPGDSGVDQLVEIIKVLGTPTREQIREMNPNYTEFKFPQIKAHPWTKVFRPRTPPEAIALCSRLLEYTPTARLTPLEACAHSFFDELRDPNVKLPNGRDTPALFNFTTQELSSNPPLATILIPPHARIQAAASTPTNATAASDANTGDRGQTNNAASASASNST
Bcl-2-like protein 1, sequence (Q07817 whole entry): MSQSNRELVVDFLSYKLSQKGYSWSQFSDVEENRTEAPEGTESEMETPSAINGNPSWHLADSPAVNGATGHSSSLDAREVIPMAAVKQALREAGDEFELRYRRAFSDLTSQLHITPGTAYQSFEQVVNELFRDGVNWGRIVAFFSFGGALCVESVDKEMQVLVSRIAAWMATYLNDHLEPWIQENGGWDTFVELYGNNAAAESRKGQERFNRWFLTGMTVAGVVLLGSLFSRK
Induced myeloid leukemia cell differentiation protein Mcl-1, sequence (Q07820 whole entry, the tested form may be a part): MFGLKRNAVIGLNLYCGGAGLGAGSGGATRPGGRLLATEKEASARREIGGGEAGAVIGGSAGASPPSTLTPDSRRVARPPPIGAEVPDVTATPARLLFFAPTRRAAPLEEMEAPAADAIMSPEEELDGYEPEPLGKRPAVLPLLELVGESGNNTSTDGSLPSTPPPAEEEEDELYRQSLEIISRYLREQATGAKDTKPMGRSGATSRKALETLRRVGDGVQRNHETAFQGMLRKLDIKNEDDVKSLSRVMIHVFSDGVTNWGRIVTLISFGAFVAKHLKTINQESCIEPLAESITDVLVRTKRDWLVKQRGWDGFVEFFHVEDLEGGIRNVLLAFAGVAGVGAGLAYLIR
Beta-arrestin-1, sequence (P49407 whole entry): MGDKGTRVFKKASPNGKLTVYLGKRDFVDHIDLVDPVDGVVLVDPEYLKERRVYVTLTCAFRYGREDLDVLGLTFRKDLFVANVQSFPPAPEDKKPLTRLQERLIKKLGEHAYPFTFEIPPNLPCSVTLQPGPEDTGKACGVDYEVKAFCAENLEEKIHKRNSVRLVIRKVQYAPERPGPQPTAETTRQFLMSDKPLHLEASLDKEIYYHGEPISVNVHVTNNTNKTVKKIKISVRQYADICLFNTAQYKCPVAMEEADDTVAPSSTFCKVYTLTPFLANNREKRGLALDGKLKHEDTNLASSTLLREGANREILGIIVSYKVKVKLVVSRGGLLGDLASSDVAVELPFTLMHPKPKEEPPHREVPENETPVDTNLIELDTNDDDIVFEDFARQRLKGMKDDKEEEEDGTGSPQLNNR

For `Brc1ccccc1C1Nc2cccc3cccc(c23)N1`, the EC50 [1] was 14.2 µM (active), the EC50 [2] was 9.74 µM (active) and the IC50 [3] was 2.94 µM (inactive). The EC50 [4] was > 150 µM (not active).

For `O=c1c2ccccc2sc2ccc(C#CC3(O)CCCCC3)cc12`, the EC50 [5] was < 0.16 µM (active), the EC50 [6] was < 0.1 µM (active) and the EC50 [7] was < 0.1 µM (active). The EC50 [8] was < 0.1 µM (active), the EC50 [9] was 0.083 µM (active) and the EC50 [10] was 0.118 µM (active). For the same molecule, the EC50 [11] was 0.14 µM (active), the AC50 [12] was < 0.26 µM (active) and the AC50 [13] was > 70 µM (inactive). For the same molecule, the AC50 [14] was 0.555 µM (active) and the AC50 [15] was 29.8 µM (active).

For `Nc1nc(NCCCN2CCOCC2)nc(Nc2ccc(F)cc2)c1[N+](=O)[O-]`, the AC50 [16] was 1.25 µM (active) and the AC50 [17] was 0.406 µM (active).

With `COc1ccc(Cl)cc1NC(=O)CCS(=O)(=O)c1ccc(Br)cc1` the IC50 [18] was > 100 µM (inactive), the IC50 [19] was 5.02 µM (active) and the IC50 [20] was > 66.6 µM (inactive). For the same molecule, the IC50 [21] was > 100 µM (inactive), the EC50 [22] was 0.779 µM (active) and the IC50 [23] was 32.2 µM (not active). For the same molecule, the EC50 [24] was 17.4 µM (active), the IC50 [25] was 10.9 µM (active) and the IC50 [26] was 11.4 µM (not active). The IC50 [27] was 4.16 µM (active).
